Experimental data: US5169845A, “Piperazine derivatives” (John Wyeth & Brother Limited, priority 1990, dated 1992)

Experiments:
5-HT1A receptor = target: T1, 5-HT1A receptor (Rattus norvegicus, UniProt P19327); assay: 5-HT1A receptor binding activity in rat hippocampal membrane homogenate
T1 construct: rat hippocampal membrane homogenate; from tissue; host or cells: rat hippocampal membrane homogenate
T1 sequence (P19327 1-422): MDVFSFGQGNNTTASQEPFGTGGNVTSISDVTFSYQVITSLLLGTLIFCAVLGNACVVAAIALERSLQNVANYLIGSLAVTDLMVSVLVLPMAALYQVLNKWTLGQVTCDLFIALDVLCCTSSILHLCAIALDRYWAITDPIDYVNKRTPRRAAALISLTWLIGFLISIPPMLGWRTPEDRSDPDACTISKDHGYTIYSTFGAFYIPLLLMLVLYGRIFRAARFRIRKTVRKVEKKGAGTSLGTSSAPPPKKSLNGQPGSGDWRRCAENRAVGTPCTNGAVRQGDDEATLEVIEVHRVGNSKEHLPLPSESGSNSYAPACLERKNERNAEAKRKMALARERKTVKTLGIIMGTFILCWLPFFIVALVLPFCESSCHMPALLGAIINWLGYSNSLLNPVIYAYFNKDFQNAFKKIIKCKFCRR
Procedure: The compounds of the invention were tested for 5-HT1A receptor binding activity in rat hippocampal membrane homogenate by the method of B S Alexander and M D Wood, J Pharm Pharmacol, 1988, 40, 888-891.

α1 = assay: affinity for the α1 site (procedure of A L Marrow et al); assay type: binding

COc1ccccc1N1CCN(CCC(C(=O)N2CCCCCC2)c2cccs2)CC1 (stereo not shown) [Example 2, 2,3,4,5,6,7-Hexahydro-1-[2-(2-thiophenyl)-4-(1-(4-(2-methoxyphenyl)piperazinyl))]butyryl-1H-azepine]
IC50 (5-HT1A receptor): 0.8 nM | IC50 (α1): 147 nM

COc1ccccc1N1CCN(CC(C(=O)NC(C)(C)C)c2ccccn2)CC1 (stereo not shown) [Example 1, N-tert-Butyl-3-[4-(2-methoxyphenyl)piperazin-1-yl]-2-(2-pyridyl)propanamide]
IC50 (5-HT1A receptor): 38 nM | IC50 (α1): 2900 nM
